Laboratory results reported in US11191757B2, “Combination of pimavanserin and cytochrome P450 modulators” (ACADIA Pharmaceuticals Inc., priority 2016, dated 2021).
Entries after “also recorded” stand apart in the source; their conditions may differ. Each block holds one molecule with its values, some of them ahead of it.

What was measured:
[1] = Elimination half-life of circulating metabolite M1 in humans in vivo; parameters: species or system human
[2] = Pharmacokinetics of single-dose pimavanserin alone and in the presence of multiple-dose ketoconazole (strong CYP3A inhibitor) in healthy subjects; settings: for exposure to metabolite, mean AUC ratio AUC(metabolite)/AUC(parent): after a single dose of pimavanserin; for metabolite plasma concentrations with ketoconazole co-administration: metabolite in plasma after pimavanserin tartrate 40 mg with ketoconazole 400 mg daily; for metabolite plasma levels after pimavanserin: metabolite in plasma after single dose pimavanserin tartrate 40 mg, 19 subjects
Protocol: (§2) 20 subjects (14 males and 6 females) were enrolled in this study. These subjects were healthy male or female subjects between the ages of 18 and 55 years, and with a body mass index (BMI) between 18 and 30 kg/m^2. Among the 20 subjects, 10 subjects (50%) were black, 9 subjects (45%) were white and 1 subject (5%) was American Indian/Alaska native.
(§3) On Day 1, subjects received a single oral dose of pimavanserin tartrate 40 mg (2×20 mg tablets) under fasting conditions. On Day 15, subjects began taking ketoconazole 400 mg (2×200 mg tablets) orally once daily for 14 days. A single oral dose of pimavanserin tartrate 40 mg was administered under fasting conditions 60 minutes after the fifth ketoconazole dose (on Day 19). Both single doses of pimavanserin tartrate were administered on an empty stomach, following an overnight fast of approximately 10 hours prior to dosing. Subjects continued to fast for 4 hours after administration of pimavanserin tartrate.
(§4) Samples for pimavanserin pharmacokinetic (PK) analysis were collected prior to each pimavanserin dose and at scheduled time points up to 14 days post-dose. More specifically, blood samples for the determination of plasma pimavanserin and four of its metabolites were collected at the following time points in relation to pimavanserin dosing on Day 1 and Day 19: pre-dose (within 30 minutes of dosing), 1, 2, 4, 6, 9, 12, 16, 24, 36, 48, 72, 96, 144, 192, 264, and 336 hours post-dose. The pharmacokinetics of pimavanserin and four metabolites, M1 (N-desmethyl-pimavanserin), M2 (O-desalkyl-pimavanserin), M3 ([ω-1]-hydroxy-pimavanserin), and M4 (ω-hydroxy-pimavanserin), by treatment consisting of pimavanserin alone and pimavanserin with ketoconazole, were assessed using noncompartmental analysis.
(§5) The following parameters were determined for pimavanserin, M1, M2 and M3 (the analytes for which there was a sufficient number of quantifiable post-dose concentrations): the area under the concentration-time curve from 0 to the time of the last measurable concentration (AUC0-t); the area from 0 to infinity (AUC0-inf); the percent of the extrapolated portion of the AUC0-inf (% AUCext); the maximum observed plasma concentration (Cmax); time of maximum plasma concentration (Tmax); apparent first-order terminal elimination rate constant (kel), and apparent first-order terminal elimination half-life (t1/2). Additional PK parameters computed for pimavanserin were oral clearance (CL/F), and apparent volume of distribution (Vz/F). Where feasible, as in the case of pimavanserin, M1, M2 and M3, parent ratios, which were computed as AUC(metabolite)/AUC(parent) ratios based on both AUC0-t and AUC0-inf were also determined.
(§6) A two-sided paired t-test was performed on the natural log-transformed pimavanserin AUC0-t, AUC0-inf, and Cmax at the alpha level of 0.05. The geometric ratio of treatment means (pimavanserin with ketoconazole/pimavanserin alone) and 90% geometric confidence intervals for the ratio of means were calculated for AUC0-t, AUC0-inf, and Cmax.

[3] = both, human, in vivo
Protocol: as §2, §3, §4, §5, §6

[4] = target: cytochrome P450 (CYP) 3A4 (Homo sapiens, UniProt P08684); assay: In vitro studies of the enzymes forming the primary metabolites of pimavanserin; format: in vitro ADME
cytochrome P450 (CYP) 3A4, sequence (P08684 whole entry): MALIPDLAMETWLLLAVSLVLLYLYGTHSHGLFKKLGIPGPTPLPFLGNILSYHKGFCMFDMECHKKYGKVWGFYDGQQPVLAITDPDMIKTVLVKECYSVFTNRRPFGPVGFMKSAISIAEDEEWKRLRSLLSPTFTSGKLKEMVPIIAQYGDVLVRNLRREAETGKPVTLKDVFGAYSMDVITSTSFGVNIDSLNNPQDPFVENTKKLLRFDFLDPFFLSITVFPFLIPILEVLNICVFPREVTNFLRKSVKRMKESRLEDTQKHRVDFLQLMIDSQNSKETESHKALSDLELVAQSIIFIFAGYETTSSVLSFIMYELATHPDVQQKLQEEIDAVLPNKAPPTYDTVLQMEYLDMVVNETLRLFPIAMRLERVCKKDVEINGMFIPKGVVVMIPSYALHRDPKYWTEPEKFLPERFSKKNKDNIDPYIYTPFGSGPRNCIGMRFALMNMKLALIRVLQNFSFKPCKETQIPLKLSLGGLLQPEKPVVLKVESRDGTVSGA
Protocol: (§1) A major metabolite formed in vitro by human liver microsomes, M1 (N-desmethyl-pimavanserin), was identified as a significant circulating metabolite in humans in vivo.
An in vitro study was performed to analyze the role of a CYP3A4 inhibitor in pimavanserin metabolism.

[5] = Safety and tolerability of single-dose pimavanserin alone and in the presence of ketoconazole in healthy subjects; format: in vivo, human; settings: for treatment-related TEAEs considered related to the substance, number (% of the 16 treatment-related TEAEs): 20 healthy subjects, pimavanserin tartrate 40 mg single doses, ketoconazole 400 mg daily for 14 days; for safety and tolerability: healthy adult subjects
Protocol: The subject who was discontinued was not replaced.
Safety data (including adverse events (AEs)), laboratory tests, vital sign measurements, electrocardiograms (ECGs), and physical examination (PE) were reviewed throughout the study for the purpose of safety monitoring. Clinical laboratory assessments were obtained on Day −1, Day 18, and the end of study visit. Vital signs were performed at each study visit, except on Day −1. A 12-lead ECG was performed on Day −1, Day 1, Day 19 and the end of study visit. Other safety measures included physical examination on Days −1, 3, 23, and the end of study visit and any other measures deemed necessary.
All available safety data from subjects receiving at least one dose of study medication were included in the safety analyses. The frequency of AEs was tabulated. Pre-treatment, within study, and end of study, and change from pre-treatment laboratory, vital signs, and ECG parameters were summarized. Shift tables were prepared for laboratory parameters.

clinical = settings: both, human, in vivo, po, 40 mg
Protocol: as §2, §3, §4, §5, §6

CYP2J2 = target: T1, CYP2J2 (Homo sapiens, UniProt P51589); assay: In vitro studies of the enzymes forming the primary metabolites of pimavanserin; format: in vitro ADME
T1 sequence (P51589 1-502): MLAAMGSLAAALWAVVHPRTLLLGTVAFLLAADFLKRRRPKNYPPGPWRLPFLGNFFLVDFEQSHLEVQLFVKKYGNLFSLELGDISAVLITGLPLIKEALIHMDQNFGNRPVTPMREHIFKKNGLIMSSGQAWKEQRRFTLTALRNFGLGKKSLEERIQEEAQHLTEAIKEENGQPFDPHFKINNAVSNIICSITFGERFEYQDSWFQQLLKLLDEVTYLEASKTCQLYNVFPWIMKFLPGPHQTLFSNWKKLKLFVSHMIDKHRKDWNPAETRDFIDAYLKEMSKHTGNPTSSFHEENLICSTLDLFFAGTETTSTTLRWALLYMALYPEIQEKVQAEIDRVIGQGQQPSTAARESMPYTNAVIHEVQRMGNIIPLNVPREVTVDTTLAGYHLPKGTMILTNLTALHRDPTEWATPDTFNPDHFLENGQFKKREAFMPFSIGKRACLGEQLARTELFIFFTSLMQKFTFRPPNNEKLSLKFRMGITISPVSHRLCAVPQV
Description: as §1

CYP3A4 = target: T2, CYP3A4 (Homo sapiens, UniProt P08684); assay: Effect of pimavanserin on the pharmacokinetics of midazolam, in vivo probe drug for CYP3A4; settings: 34 mg pimavanserin for up to 38 days, humans
T2 construct: from tissue; host or cells: human subjects in vivo (endogenous hepatic/intestinal enzyme)
T2 sequence (P08684 whole entry): as the sequence (P08684 whole entry) above
Protocol: In this study, the pharmacokinetics of midazolam, a sensitive in vivo probe drug for CYP3A4 and an accepted probe drug for CYP3A4, were evaluated in the presence of pimavanserin in humans. […] No dose adjustment is therefore required for other CYP3A4 substrates when coadministered with pimavanserin.

elimination half-life [1]: about 65 hours
exposure to metabolite, mean AUC ratio AUC(metabolite)/AUC(parent) [2]: 1.47
net increase in mean AUC0-t of metabolite with ketoconazole co-administration relative to pimavanserin alone ([2]; metabolite in plasma after pimavanserin tartrate 40 mg, ketoconazole 400 mg daily): 26%
Compound: CC(C)COc1ccc(CNC(=O)N(Cc2ccc(F)cc2)C2CCNCC2)cc1 [M1, N-desmethyl-pimavanserin]

exposure to metabolite, mean AUC ratio AUC(metabolite)/AUC(parent) [2]: 0.0365
Compound: CN1CCC(N(Cc2ccc(F)cc2)C(=O)NCc2ccc(O)cc2)CC1 [M2, O-desalkyl-pimavanserin]
metabolite plasma concentrations with ketoconazole co-administration [2]: decreased plasma concentrations; also recorded: reduced

Compound: CN1CCC(N(Cc2ccc(F)cc2)C(=O)NCc2ccc(OCC(C)(C)O)cc2)CC1 [M3, [ω-1]-hydroxy-pimavanserin]
metabolite plasma concentrations with ketoconazole co-administration [2]: not detectable in any subjects; also recorded: reduced
metabolite plasma levels after pimavanserin [2]: Only 5 of the 19 subjects had a few measurable plasma levels; also recorded: Low levels

Compound: CC(CO)COc1ccc(CNC(=O)N(Cc2ccc(F)cc2)C2CCN(C)CC2)cc1 (stereo not shown) [M4, ω-hydroxy-pimavanserin]
metabolite plasma levels after pimavanserin [2]: undetectable; also recorded: no detectable concentrations

Compound: CC(C)COc1ccc(CNC(=O)N(Cc2ccc(F)cc2)C2CCN(C)CC2)cc1 [Pimavanserin, N-(1-methylpiperidin-4-yl)-N-(4-fluorophenylmethyl)-N′-(4-(2-methylpropyloxy)phenylmethyl)carbamide]
ratio of the geometric means, pimavanserin AUC0-inf [3]: approximately 3
ratio of the geometric means, pimavanserin AUC0-t [3]: approximately 3
role of enzyme in formation of the primary metabolites [4]: formed predominantly by the cytochrome P450 (CYP) 3A4 enzymes
treatment-related TEAEs considered related to the substance, number (% of the 16 treatment-related TEAEs) [5]: 8 (50%)
changes in mean clinical laboratory, vital signs, 12-lead ECG or physical examination findings ([5]; following pimavanserin alone or pimavanserin with ketoconazole): No trends or clinically relevant changes
safety and tolerability ([5]; pimavanserin administered alone): safe and generally well tolerated
safety and tolerability ([5]; pimavanserin administered with ketoconazole): safe and generally well tolerated
deaths or serious adverse events during the study ([5]; pimavanserin alone and with ketoconazole, 20 subjects): No deaths or serious adverse events
AUC(0-inf) (clinical): 1260 ± 464 ng·h/mL
AUC(0-t) (clinical): 1220 ± 433 ng·h/mL
Cmax (clinical): 17.1 ± 3.8 ng/mL
role of enzyme in formation of the primary metabolites (CYP2J2): minor role
effect on midazolam exposure (induction or inhibition of CYP3A4) (CYP3A4): no immediate or delayed effect

Compound: CC(=O)N1CCN(c2ccc(OCC3COC(Cn4ccnc4)(c4ccc(Cl)cc4Cl)O3)cc2)CC1 (stereo not shown) [ketoconazole, reference compound]
treatment-related TEAEs considered related to the substance, number (% of the 16 treatment-related TEAEs) [5]: 12 (75%)
